Columns and labels:
[1] = target: p300 HAT domain (residues 1287-1666) (Homo sapiens (Human), UniProt Q09472); assay: p300 HAT SPA assay (scintillation proximity assay, acetylation of biotinylated H3(1-21) peptide); type: biochemical; details: p300 HAT domain; average of at least 2 replicate titrations; read-out: P300 HAT SPA IC50
Procedure, shortened: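 Purified p300 HAT domain reaction transferred to streptavidin plates to capture biotinylated H3(1-21) peptide, incubated 1.5 hr at RT, and read by scintillation proximity. IC50 values derived from concentration-response data.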

[2] = test system: acetylation of chromatin at H3K18 (catalyzed by p300 and CBP) in HCT-116 cells; assay: H3K18Ac MSD cellular assay; type: cell-based; details: 2 hr treatment, average of at least 2 replicate titrations
Procedure: Select compounds were also evaluated in a H3K18Ac MSD cellular assay that measures the ability of compounds to inhibit the acetylation of chromatin at H3K18, a process catalyzed by p300 and CBP. In a typical experiment the p300 HAT inhibitory activity inside cells of the compounds described herein was determined in accordance with the following experimental method. 20 k HCT-116 cells per well are plated in 75 μL RPMI+10% FBS media the night before treatment. Compounds plated in DMSO at 4× final concentration are resuspended in 30 μL RPMI+10% FBS, then 25 μL is combined with corresponding wells containing cells. Treated cells are incubated for 2 hr at 37° C., then lysed in 500 μL final volume and frozen at −80° C. MSD plates (Meso Scale Discovery) are coated overnight at 4° C. with 60 μL 1:500α-total histone antibody (Millipore MAB3422) in PBS. Plates are then blocked with 5% BSA in TBST shaking at RT for 1 hr, washed, and 30 μL lysate added to each well for 2 hr shaking at RT. Plates are washed and 25 μL 1:216α-H3K18ac antibody (CST 9675) in PBS added, then incubated for 1 hr shaking at RT. Plates are washed again, then 25 μL 1:1000 Sulfo-Tag goat a-rabbit antibody (Meso Scale Discovery R32Ab-1) in PBS is added for 1 hr shaking at RT. Plates are washed once more, then 150 μL 1× Read Buffer (MSD #R92TD-3) is added to all wells and read on MSD SECTOR Imager 2400 using the conventional read setup.

Chain of p300 HAT domain (residues 1287-1666) (Q09472 1287-1666): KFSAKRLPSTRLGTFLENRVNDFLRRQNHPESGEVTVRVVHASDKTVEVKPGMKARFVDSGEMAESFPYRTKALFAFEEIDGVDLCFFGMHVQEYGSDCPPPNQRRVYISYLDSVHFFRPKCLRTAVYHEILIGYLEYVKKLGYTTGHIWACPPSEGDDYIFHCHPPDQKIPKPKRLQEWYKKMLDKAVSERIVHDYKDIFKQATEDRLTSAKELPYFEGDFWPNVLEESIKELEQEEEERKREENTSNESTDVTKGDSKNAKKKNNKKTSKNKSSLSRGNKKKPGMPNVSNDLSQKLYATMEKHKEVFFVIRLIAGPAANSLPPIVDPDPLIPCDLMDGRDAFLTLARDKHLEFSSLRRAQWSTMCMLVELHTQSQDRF

| Structure (SMILES) | IC50 [1] [nM] | EC50 ([2]; Homo sapiens, HCT-116, 2 h) [nM] | EC50 [2] [nM] |
| --- | --- | --- | --- |
| Cc1ccc(-c2ccc3c(C(=O)C(NCCc4ccc(Cl)cc4)c4ccccc4)c[nH]c3c2)cn1 (single isomer, unassigned) [88 Isomer 2] | 603 | 379 |  |
| O=C(c1c[nH]c2cc(-c3cccnc3)ccc12)C(NCCc1ccc(Cl)cc1)c1ccccc1 (single isomer, unassigned) [90 Isomer 2] | 591 | 80 |  |
| CC(Cc1ccc(Cl)cc1)NC(C(=O)c1c[nH]c2cc(-c3cnn(C)c3)ccc12)c1ccccc1 (single isomer, unassigned) [92 Isomer 3] | 164 | 109 |  |
| N#Cc1ccc(CCNC(C(=O)c2c[nH]c3cc(-c4cnn(CCO)c4)ccc23)c2ccccc2)cc1 (single isomer, unassigned) [95 Isomer 2] | 46 | 61.2 |  |
| COCCn1cc(-c2ccc3c(C(=O)C(NCCc4ccc(C#N)cc4)c4ccccc4)c[nH]c3c2)cn1 (single isomer, unassigned) [96 Isomer 2] | 62 | 26.4 |  |
| CC(Cc1ccc(Cl)cc1Cl)NC(C(=O)c1c[nH]c2cc(-c3cnn(C)c3)ccc12)c1ccccc1 (single isomer, unassigned) [97 Isomer 1] | 437 |  | 135 |
| CC(Cc1ccc(Cl)cc1Cl)NC(C(=O)c1c[nH]c2cc(-c3cnn(C)c3)ccc12)c1ccccc1 (single isomer, unassigned) [97 Isomer 2] | 6260 |  | 780 |
| CC(Cc1ccc(Cl)cc1Cl)NC(C(=O)c1c[nH]c2cc(-c3cnn(C)c3)ccc12)c1ccccc1 (single isomer, unassigned) [97 Isomer 3] | > 30000 |  | > 10000 |
| CC(Cc1ccc(Cl)cc1Cl)NC(C(=O)c1c[nH]c2cc(-c3cnn(C)c3)ccc12)c1ccccc1 (single isomer, unassigned) [97 Isomer 4] | 6710 |  | > 10000 |
| N#Cc1ccc(CCNC(C(=O)c2c[nH]c3cc(-c4cn[nH]c4)ccc23)c2ccccc2)cc1 (single isomer, unassigned) [98 Isomer 2] | 58.3 | 18.6 |  |
| N#Cc1ccc(CCNC(C(=O)c2cnn3cc(-c4cn[nH]c4)ccc23)c2ccccc2)cc1 (single isomer, unassigned) [99 Isomer 2] | 15.6 | 21.6 |  |
| Cn1cc(-c2ccc3c(C(=O)C(NCCc4ccc(S(N)(=O)=O)cc4)c4ccccc4)cnn3c2)cn1 (single isomer, unassigned) [101 Isomer 2] | 59.2 | 47.1 |  |
| Cn1cc(-c2ccc3c(C(=O)C(NCCc4ccc(C#N)cc4)c4ccccc4)c[nH]c3c2F)cn1 (single isomer, unassigned) [103 Isomer 2] | 118 | 68.5 |  |
| O=C(c1c[nH]c2cc(-c3ccccn3)ccc12)C(NCCc1ccc(Cl)cc1)c1ccccc1 (single isomer, unassigned) [108 Isomer 1] | 1600 | 928 |  |
| Cc1cnc(-c2ccc3c(C(=O)C(NCCc4ccc(Cl)cc4)c4ccccc4)c[nH]c3c2)[nH]1 (single isomer, unassigned) [109 Isomer 2] | 195 | 267 |  |
| Cc1ncc(-c2ccc3c(C(=O)C(NCCc4ccc(Cl)cc4)c4ccccc4)c[nH]c3c2)[nH]1 (single isomer, unassigned) [110 Isomer 2] | 258 | 308 |  |
| O=C(c1c[nH]c2cc(-c3cccnn3)ccc12)C(NCCc1ccc(Cl)cc1)c1ccccc1 (single isomer, unassigned) [112 Isomer 2] | 136 | 42.6 |  |
| Cn1cnc(-c2ccc3c(C(=O)C(NCCc4ccc(C#N)cc4)c4ccccc4)c[nH]c3c2)c1 (single isomer, unassigned) [113 Isomer 2] | 28 | 34.2 |  |
| Cn1cc(-c2ccc3c(C(=O)C(NCCc4ccc(C#N)cc4)c4ccccc4)c[nH]c3c2)nn1 (single isomer, unassigned) [114 Isomer 2] | 19 | 92.6 |  |
| Cn1cnc(-c2ccc3c(C(=O)C(NCCc4ccc(S(N)(=O)=O)cc4)c4ccccc4)c[nH]c3c2)c1 (single isomer, unassigned) [115 Isomer 2] | 389 | 530 |  |
| Cn1cc(-c2ccc3c(C(=O)C(NCCc4ccc(S(N)(=O)=O)cc4)c4ccccc4)c[nH]c3c2)nn1 (single isomer, unassigned) [116 Isomer 2] | 413 | 148 |  |

| Structure (SMILES) | IC50 [1] [nM] | EC50 ([2]; Homo sapiens, HCT-116, 2 h) [nM] | EC50 [2] [nM] |
| --- | --- | --- | --- |
| NS(=O)(=O)c1ccc(CCNC(C(=O)c2c[nH]c3cc(-n4ccnc4)ccc23)c2ccccc2)cc1 (single isomer, unassigned) [119 Isomer 2] | 580 | 232 |  |
| N#Cc1ccc(CCNC(C(=O)c2c[nH]c3cc(-n4ccnc4)ccc23)c2ccccc2)cc1 (single isomer, unassigned) [120 Isomer 1] | 987 |  | 193 |
| N#Cc1ccc(CCNC(C(=O)c2c[nH]c3cc(-n4ccnc4)ccc23)c2ccccc2)cc1 (single isomer, unassigned) [120 Isomer 2] | 172 |  | 73.1 |
| CN1CCN(c2ccc3c(C(=O)C(NCCc4ccc(C#N)cc4)c4ccccc4)c[nH]c3n2)CC1 (single isomer, unassigned) [121 Isomer 2] | 82 | 122 |  |
| CN1CCN(c2ccc3c(C(=O)C(NCCc4ccc(C#N)cc4)c4ccccc4)c[nH]c3c2)CC1 (single isomer, unassigned) [122 Isomer 2] | 44 | 97.5 |  |
| CN1CCN(c2ccc3c(C(=O)C(NCCc4ccc(S(N)(=O)=O)cc4)c4ccccc4)c[nH]c3c2)CC1 (single isomer, unassigned) [124 Isomer 2] | 566 | 429 |  |
| CNC(=O)c1ccc(CCN[C@H](C(=O)c2c[nH]c3cc(-c4cnn(C)c4)ccc23)c2ccccc2)cc1 (single isomer, unassigned) [131 Isomer 2] | 1290 | 101 |  |
| Cn1cc(-c2ccc3c(C(=O)C(NCCc4ccc(C(N)=O)cc4)c4ccccc4)c[nH]c3c2)cn1 (single isomer, unassigned) [139 Isomer 2] | 511 | 53.4 |  |
| Cn1cc(-c2ccc3c(C(=O)C(NCCc4ccc(C(=O)O)cc4Cl)c4ccccc4)c[nH]c3c2)cn1 (single isomer, unassigned) [142 Isomer 2] | 81.6 | 1200 |  |
| COc1cccc2c(C(=O)[C@@H](NCCc3ccc(S(N)(=O)=O)cc3)c3ccccc3)c[nH]c12 (single isomer, unassigned) [144 Isomer 2] | 1410 | 1380 |  |
| CCNC(=O)c1ccc2c(C(=O)[C@@H](NCCc3ccc(C#N)cc3)c3ccccc3)c[nH]c2c1 (single isomer, unassigned) [146 Isomer 1] | 786 |  | 401 |
| CNC(=O)c1ccc2c(C(=O)C(NCCc3ccc(Cl)cc3Cl)c3ccccc3)c[nH]c2c1 (single isomer, unassigned) [151 Isomer 2] | 101 | 53.5 |  |
| N#Cc1ccc(CCNC(C(=O)c2c[nH]c3cc(C(=O)NCC(F)(F)F)ccc23)c2ccccc2)cc1 (single isomer, unassigned) [157 Isomer 2] | 66 | 36.4 |  |
| CNC(=O)CCc1ccc2c(C(=O)C(NCCc3ccc(F)cc3)c3ccccc3)c[nH]c2c1 (single isomer, unassigned) [158 Isomer 1] | 1500 | 641 |  |
| CC(C)(O)CNC(=O)c1ccc2c(C(=O)C(NCCc3ccc(C#N)cc3)c3ccccc3)c[nH]c2c1 (single isomer, unassigned) [161 Isomer 2] | 95.1 | 78.1 |  |
| CCN1CC(NC(=O)c2ccc3c(C(=O)C(NCCc4ccc(C#N)cc4)c4ccccc4)c[nH]c3c2)C1 (single isomer, unassigned) [163 Isomer 2] | 41.9 | > 1000 |  |
| N#Cc1ccc(CCNC(C(=O)c2c[nH]c3cc(C(=O)NC4CS(=O)(=O)C4)ccc23)c2ccccc2)cc1 (single isomer, unassigned) [166 Isomer 2] | 28.8 | 112 |  |
| N#Cc1ccc(CCNC(C(=O)c2c[nH]c3cc(C(=O)NC4COC4)ccc23)c2ccccc2)cc1 (single isomer, unassigned) [174 Isomer 1] | 965 |  | > 1000 |
| N#Cc1ccc(CCNC(C(=O)c2c[nH]c3cc(C(=O)NC4COC4)ccc23)c2ccccc2)cc1 (single isomer, unassigned) [174 Isomer 2] | 39 |  | 98.3 |
| CS(=O)(=O)CCCNC(=O)c1ccc2c(C(=O)C(NCCc3ccc(C#N)cc3)c3ccccc3)c[nH]c2c1 (single isomer, unassigned) [175 Isomer 2] | 44 | 184 |  |
| Cn1cnc(-c2ccc3c(C(=O)[C@@H](NCCc4ccc(C(N)=O)cc4)c4ccccc4)c[nH]c3c2)c1 (single isomer, unassigned) [177 Isomer 2] | 838 | 1270 |  |

— US11414384B2, “P300/CBP hat inhibitors” (Constellation Pharmaceuticals, Inc., priority 2018, dated 2022)
